Measured values reported in ChEMBL document CHEMBL1201862, “PubChem BioAssay data set” (2004).
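Tested at 5 concentrations; 48 h exposure; 96-well plates; endpoints linearly interpolated, else capped at highest concentration. GI50: concentration for 50% inhibition of growth.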 The source made the active and inactive calls. No stated cut-off is given here; in the data, active = GI50 up to about 1.1 µM and inactive = higher.

Legend:
Assay in all cases: growth of human tumour cells (NCI), 48 h
SF-295 = test system: SF-295
RPMI-8226 = test system: RPMI-8226
Hs-578T = test system: Hs-578T
HOP-92 = test system: HOP-92
A498 = test system: A498
PC-3 = test system: PC-3
OVCAR-3 = test system: OVCAR-3
HCT-15 = test system: HCT-15
Malme-3M = test system: Malme-3M
SNB-78 = test system: SNB-78
SR = test system: SR
M19-MEL = test system: M19-MEL
HT-29 = test system: HT-29
786-0 = test system: 786-0
UO-31 = test system: UO-31
NCI-H522 = test system: NCI-H522
SK-MEL-5 = test system: SK-MEL-5
DLD-1 = test system: DLD-1
HOP-62 = test system: HOP-62
SF-539 = test system: SF-539
RXF 393 = test system: RXF 393
SN12C = test system: SN12C
NCI/ADR-RES = test system: NCI/ADR-RES
A549 = test system: A549
KM12 = test system: KM12
T47D = test system: T47D
U-251 = test system: U-251
NCI-H460 = test system: NCI-H460
CAKI-1 = test system: CAKI-1
SK-MEL-2 = test system: SK-MEL-2
BT-549 = test system: BT-549
SF-268 = test system: SF-268
K562 = test system: K562
NCI-H23 = test system: NCI-H23
IGROV-1 = test system: IGROV-1
HCT-116 = test system: HCT-116
MDA-MB-231 = test system: MDA-MB-231
OVCAR-4 = test system: OVCAR-4
MDA-MB-435 = test system: MDA-MB-435
DMS-273 = test system: DMS-273
SK-OV-3 = test system: SK-OV-3
CCRF-CEM = test system: CCRF-CEM
OVCAR-5 = test system: OVCAR-5
COLO 205 = test system: COLO 205
KM-20L2 = test system: KM-20L2
HCC 2998 = test system: HCC 2998
MDA-N = test system: MDA-N
UACC-257 = test system: UACC-257
HOP-18 = test system: HOP-18
TK-10 = test system: TK-10
SW-620 = test system: SW-620
SNB-19 = test system: SNB-19
UACC-62 = test system: UACC-62
XF498 = test system: XF498
SK-MEL-28 = test system: SK-MEL-28
SNB-75 = test system: SNB-75
MCF7 = test system: MCF7
LOX IMVI = test system: LOX IMVI
M14 = test system: M14
MOLT-4 = test system: MOLT-4
NCI-H226 = test system: NCI-H226
OVCAR-8 = test system: OVCAR-8
EKVX = test system: EKVX
ACHN = test system: ACHN
DU-145 = test system: DU-145
HL-60 = test system: HL-60
LXFL 529 = test system: LXFL 529
DMS-114 = test system: DMS-114

Measured: GI50

CCCCCCCCCCCCOCCCOP(=O)([O-])OCC[N+](C)(C)C
inactive: SF-295 35.5 µM | RPMI-8226 9.08 µM | Hs-578T 22.4 µM | HOP-92 19.4 µM | A498 30 µM | PC-3 2.18 µM | OVCAR-3 51.9 µM | Malme-3M 64.7 µM | SNB-78 25.2 µM | SR 11.9 µM | M19-MEL 28.2 µM | HT-29 17.3 µM | 786-0 10.8 µM | UO-31 49.4 µM | NCI-H522 22.7 µM | SK-MEL-5 48.6 µM | DLD-1 27.9 µM | HOP-62 43.2 µM | SF-539 31.2 µM | RXF 393 9.75 µM | SN12C 28.5 µM | NCI/ADR-RES > 81.1 µM | A549 64 µM | KM12 2.95 µM | T47D 3.64 µM | U-251 16.1 µM | NCI-H460 13.9 µM | CAKI-1 13.2 µM | SK-MEL-2 43.5 µM | BT-549 9.04 µM | SF-268 30.3 µM | K562 48.8 µM | NCI-H23 67.6 µM | IGROV-1 6.14 µM | HCT-116 26.4 µM | MDA-MB-231 11.3 µM | OVCAR-4 22.1 µM | MDA-MB-435 23.9 µM | DMS-273 12.9 µM | SK-OV-3 50.8 µM | CCRF-CEM 21.1 µM | OVCAR-5 21.1 µM | COLO 205 6.75 µM | KM-20L2 17 µM | HCC 2998 7.4 µM | MDA-N 13 µM | UACC-257 > 76 µM | HOP-18 32.7 µM | TK-10 3.4 µM | SW-620 63.5 µM | SNB-19 20.6 µM | UACC-62 28.1 µM | XF498 37.7 µM | SK-MEL-28 58.5 µM | SNB-75 24.9 µM | MCF7 45.2 µM | LOX IMVI 32.2 µM | M14 32.8 µM | MOLT-4 20.2 µM | NCI-H226 24.3 µM | OVCAR-8 47.8 µM | EKVX 99.1 µM | ACHN 30.6 µM | DU-145 34.3 µM | HL-60 7.21 µM
25.6 µM: HCT-15

O=C1C(CN2CCCCC2)CCCC1CN1CCCCC1 (stereo unspecified)
14.2 µM: HCT-15
inactive: SF-295 > 100 µM | A498 > 100 µM | OVCAR-3 17.1 µM | Malme-3M 5.82 µM | SNB-78 22.8 µM | LXFL 529 15.6 µM | SR 8.93 µM | HT-29 18.8 µM | 786-0 7.29 µM | UO-31 > 42.2 µM | SK-MEL-5 > 31.6 µM | DLD-1 15.9 µM | HOP-62 > 100 µM | SF-539 > 43.2 µM | SN12C 26.2 µM | A549 > 100 µM | KM12 > 60.3 µM | NCI-H23 > 45.1 µM | HCT-116 14.5 µM | OVCAR-4 > 10 µM | DMS-273 29.6 µM | OVCAR-5 > 59 µM | KM-20L2 13.3 µM | HCC 2998 > 100 µM | UACC-257 24.9 µM | HOP-18 14.7 µM | SW-620 9.89 µM | SNB-19 > 100 µM | UACC-62 > 40.6 µM | XF498 18.4 µM | SK-MEL-28 13.7 µM | LOX IMVI 25.5 µM | M14 32.3 µM | NCI-H226 > 100 µM | OVCAR-8 14.9 µM | EKVX 19.9 µM | ACHN 19.6 µM

C[n+]1c2ccccc2c(NCC(=O)O)c2ccccc21
> 100 µM: HCT-15
inactive: SF-295 > 100 µM | RPMI-8226 > 100 µM | A498 > 100 µM | OVCAR-3 > 100 µM | Malme-3M > 100 µM | SNB-78 > 100 µM | LXFL 529 > 100 µM | SR > 100 µM | M19-MEL > 100 µM | HT-29 > 100 µM | 786-0 > 100 µM | UO-31 > 100 µM | NCI-H522 > 100 µM | SK-MEL-5 > 100 µM | DLD-1 > 100 µM | HOP-62 > 100 µM | SF-539 > 100 µM | RXF 393 > 100 µM | SN12C > 100 µM | A549 > 100 µM | KM12 > 100 µM | DMS-114 > 100 µM | U-251 > 100 µM | NCI-H460 > 100 µM | CAKI-1 > 100 µM | SK-MEL-2 > 100 µM | SF-268 > 100 µM | K562 > 100 µM | NCI-H23 > 100 µM | IGROV-1 > 100 µM | HCT-116 86.7 µM | OVCAR-4 > 100 µM | DMS-273 > 100 µM | SK-OV-3 > 100 µM | OVCAR-5 > 100 µM | COLO 205 > 100 µM | KM-20L2 > 100 µM | HCC 2998 > 100 µM | UACC-257 > 100 µM | HOP-18 > 100 µM | TK-10 > 100 µM | SW-620 > 100 µM | SNB-19 > 100 µM | UACC-62 > 100 µM | SNB-75 > 100 µM | M14 > 100 µM | MOLT-4 > 100 µM | NCI-H226 > 100 µM | OVCAR-8 > 100 µM | EKVX 87.5 µM | ACHN > 100 µM | HL-60 > 100 µM

CC(=O)O[C@H]1CCC2[C@@H]3CCC4=C(O)C(=O)C(C#N)C[C@]4(C)C3CC[C@@]21C (stereo partly specified)
inactive: SF-295 45.9 µM | RPMI-8226 12.4 µM | HOP-92 3.8 µM | OVCAR-3 38.6 µM | Malme-3M 36.1 µM | SNB-78 47.5 µM | LXFL 529 35 µM | M19-MEL 45.2 µM | HT-29 42.5 µM | 786-0 24.4 µM | UO-31 13.7 µM | SK-MEL-5 26.1 µM | DLD-1 25.4 µM | HOP-62 65.5 µM | SF-539 50.8 µM | RXF 393 24.9 µM | SN12C 33.5 µM | A549 36.7 µM | KM12 35.7 µM | DMS-114 25.6 µM | U-251 47.8 µM | NCI-H460 31.6 µM | SK-MEL-2 35 µM | SF-268 24.4 µM | K562 24.8 µM | NCI-H23 29.1 µM | IGROV-1 26.2 µM | HCT-116 29.5 µM | OVCAR-4 30.9 µM | DMS-273 19.4 µM | SK-OV-3 29.4 µM | CCRF-CEM 30.1 µM | OVCAR-5 75.9 µM | COLO 205 28.4 µM | KM-20L2 81.3 µM | HCC 2998 29 µM | UACC-257 56.5 µM | TK-10 18.2 µM | SW-620 47.1 µM | SNB-19 45.1 µM | UACC-62 15.5 µM | XF498 22 µM | SK-MEL-28 46.7 µM | SNB-75 12.6 µM | LOX IMVI 18.9 µM | M14 34 µM | MOLT-4 30.5 µM | NCI-H226 24.9 µM | OVCAR-8 44.5 µM | EKVX 41.7 µM | ACHN 26.7 µM | HL-60 20 µM
30 µM: HCT-15
active: A498 0.361 µM

CCCN(CCCCC(NC(C)=O)C(=O)NCc1ccccc1)C(=O)N(C)N=O (stereo unspecified)
> 100 µM: HCT-15
inactive: SF-295 > 100 µM | RPMI-8226 > 100 µM | HOP-92 > 100 µM | A498 > 100 µM | OVCAR-3 > 100 µM | Malme-3M > 100 µM | SNB-78 > 100 µM | LXFL 529 > 100 µM | M19-MEL > 100 µM | HT-29 > 100 µM | 786-0 > 100 µM | UO-31 > 100 µM | NCI-H522 > 100 µM | SK-MEL-5 > 100 µM | DLD-1 > 100 µM | HOP-62 > 100 µM | SF-539 > 100 µM | RXF 393 > 100 µM | SN12C > 100 µM | A549 > 100 µM | KM12 > 100 µM | DMS-114 > 100 µM | U-251 > 100 µM | NCI-H460 > 100 µM | CAKI-1 > 100 µM | SK-MEL-2 > 100 µM | SF-268 > 100 µM | K562 > 100 µM | NCI-H23 > 100 µM | IGROV-1 > 100 µM | HCT-116 > 100 µM | OVCAR-4 > 100 µM | DMS-273 > 100 µM | SK-OV-3 > 100 µM | CCRF-CEM > 100 µM | OVCAR-5 > 100 µM | COLO 205 > 100 µM | KM-20L2 > 100 µM | HCC 2998 > 100 µM | UACC-257 > 100 µM | TK-10 > 100 µM | SW-620 > 100 µM | SNB-19 > 100 µM | UACC-62 > 100 µM | XF498 > 100 µM | SK-MEL-28 > 100 µM | SNB-75 38.1 µM | LOX IMVI > 100 µM | M14 > 100 µM | MOLT-4 92 µM | NCI-H226 > 100 µM | OVCAR-8 > 100 µM | EKVX > 100 µM | ACHN > 100 µM
